Results published in paper PMC9448818 (Translational Psychiatry, 2022).
“And” between values parts separate entries of the source, which are not always exact repeats. Equal entries are not always repeated.

Experiments:
[1] = Dose-adjusted serum concentrations of drug and metabolite (LC-MS/MS) by CYP2C19 and CYP2D6 metabolizer group; type: in vivo, human; conditions: for B, ARI concentrations in serum, CYP2D6 IM+PM / B, DHA concentrations in serum, CYP2D6 IM+PM / B, ESCadj concentrations in serum, CYP2C19 RM+UM / B, ESCadj concentrations in serum, CYP2D6 IM+PM / B, ESCadj concentrations in serum, CYP2C19 IM+PM / B, S-DCTadj concentrations in serum, CYP2C19 IM+PM / B, S-DCTadj concentrations in serum, CYP2C19 RM+UM / B, S-DCTadj concentrations in serum, CYP2D6 IM+PM: vs NM
From the text: (§1) The 16-week study protocol consisted of two phases following screening and baseline visits. […] Blood samples were collected on Weeks 2, 10, and 16 to measure medication levels and on Week 4 for pharmacogenetic analyses. The methods used for the quantification of serum levels of drug and metabolite concentrations is described in the Supplementary Methods.
Serum concentrations were adjusted for dosage (i.e., ng/mL/mg). Sampling time (i.e., hours since the last dose) was entered as a covariate in the regression models to account for when the medication was taken.
The CYP2C19 metabolizer group was not included as a fixed effect covariate, as CYP2C19 is not known to be involved in the metabolism of ARI. […]
Collection of blood samples and quantification of serum drug and metabolite concentrations Participants self-reported the time at which the last dosage of the study medication was taken during the collection of the blood samples. […]
major metabolites, (S-DCT) and (DHA), were performed at the CAMH Clinical Laboratory using LC-MS/MS technology. Briefly, a mix of deuterated internal standards (Cerilliant) was added to 100 µL of each serum specimen, calibrator (Cerilliant) and quality control (MassCheck Antidepressants/Neuroleptics, Level 1 and Level 2). Proteins were precipitated with 300 µL of 9:1 Acetonitrile:Methanol (Sigma-Aldrich) followed by 5 min centrifugation at 9000 rpm. 25 µL of each supernatant was diluted with 200 µL of 0.1% Formic acid (Sigma-Aldrich) and then analyzed on the LC-MS/MS platform consisting of ThermoFisher TSQ Quantum Ultra mass spectrometer coupled with ThermoFisher Surveyor LC pump and HTC PAL autosampler fitted with a Kinetex F5 2.6 µm, 100 x 2.1 mm column (Phenomenex). Six minute gradient elution with 0.1% Formic Acid (mobile phase A) and Acetonitrile (mobile phase B) was applied. Collision energies ranged from 14 to […]
calibration curve ranging from 10 to 1000 ng/mL for each analyte.
Vendor nominal means for quality controls were used to assess the assay accuracy for each of the four analytes […]
precision was considered acceptable assay performance.
Data was analyzed with ThemoFisher XCalibur software.

patients with MDD [2] = assay: MADRS response, remission and symptom improvement (CAN-BIND-1 trial); type: in vivo, human; design: key to Estimate for Week, percentage symptom improvement (MADRS), mixed effects model / Estimate for CYP2C19 IM+PM, percentage symptom improvement (MADRS), mixed effects model / Estimate for CYP2C19 RM+UM, percentage symptom improvement (MADRS), mixed effects model / Estimate for CYP2D6 IM+PM, percentage symptom improvement (MADRS), mixed effects model: % points of improvement = (baseline MADRS − MADRS)/baseline; conditions: for share of the effect of CYP2C19 IM+PM phenotype on symptom improvement mediated by ESCadj serum concentrations: ESC-Only, bootstrap mediation analysis; for cumulative difference in symptom improvement from baseline between CYP2C19 NMs and IMs: at trial end (Week 16)
Method: as §1
Depressive symptoms were assessed using MADRS every 2 weeks from Week 0 to 16. The primary outcomes for response were: (1) response status (responder versus non-responder) on the last visit of Phases I and II (i.e., Week 8 and 16), and (2) the percentage of symptom improvement across visits during Phases I and II. Remission status (remitter versus non-remitter) at the end of Phases I and II was a secondary outcome for a response. These response outcomes are described in the Supplementary Methods.
(§2) We assessed the dichotomous measures of response (responder vs. non-responder and remitter vs. non-remitter) and side effects (present vs. absent) for the last timepoint in Phases I and II using logistic regression models with total MADRS score at baseline included as a covariate. Given the availability of biweekly MADRS scores and multiple time points for TSES, continuous measures of response (percentage of symptom improvement) and side effects (intensity of each category of side effects) were assessed using linear mixed-effects models that included interactions of CYP2C19 and CYP2D6 metabolizer groups with timepoint, and recruitment site and individual as random effects variables.
(§3) Using Spearman’s rank correlation, we explored whether measures of unadjusted serum concentrations were associated with symptom improvement and the intensity of side effects during Phase I and II.
Description of measures of response outcome
Response status signifies the classification of patients as “responder” or “non-responder” if MADRS reduction of ≥50% or <50% from baseline was reached, respectively. For remission status, patients are classified as “remitter” if they achieved a MADRS total score of 10 or less; otherwise, they are classified as “non-remitter”. The percentage of symptom improvement was calculated by subtracting the total MADRS score from the baseline MADRS score and then dividing by the baseline MADRS score for each of the eight time points. These measures of response were selected, since continuous measures, such as percentage symptom improvement, capture more information and have higher power, whereas dichotomous measures, such as response status, has a particular clinical relevance since it is associated with MDD prognosis.
Post-hoc mediation analyses […]
strength of the association between the CYP2C19 or CYP2D6 metabolizer groups (predictor variable) and measures of treatment response or side effect (outcome variable) must be attenuated or rendered non- […]
mediation, respectively.1,2 R package “Mediation”3 and “lavaan”4 was used for continuous and binary variables, respectively, to perform nonparametric bootstrap analyses with 5000 iterations to calculate the estimate of the […]
1Baron RM, Kenny DA. The moderator–mediator variable distinction in social psychological research: Conceptual, strategic, and statistical considerations.
2MacKinnon DP, Lockwood CM, Hoffman JM, West SG, Sheets V. A Comparison of Methods to Test Mediation and Other Intervening Variable Effects.
3Tingley D, Yamamoto T, Hirose K, Keele L, Imai K, Trinh M et al. mediation: Causal Mediation Analysis. […]
project.org/package=mediation (accessed 7 Apr2021).
4Savalei V, Rosseel Y. Computational Options for Standard Errors and Test Statistics with Incomplete Normal and Nonnormal

patients with MDD [3] = assay: Toronto side effects scale (TSES), treatment-related side effects; type: in vivo, human; conditions: Week 16
From the text: The Toronto side effects scale (TSES), administered on Weeks 2, 4, 10, 12, and 16, is a clinical instrument designed to assess the frequency and severity of treatment-related side effects on 5-point Likert scales. The “intensity” score is derived by multiplying the frequency and severity of each side effect. The items assessed can be broadly categorized into the central nervous system (CNS), gastrointestinal (GI), and sexual side effects, as well as weight gain (Table S1)[28]. The primary outcomes for side effects were both dichotomous and continuous: (1) absence or presence of side effects within the four categories on the last visit of Phases I and II and (2) the intensity of each category of side effect across visits during each Phase.
as §2, §3

CYP2D6 = conditions: cited from earlier work
[4] = Week 10, ESC+ARI arm, dose-adjusted
[5] = Week 16, ESC+ARI arm, dose-adjusted
[6] = vs NM, Phase II, by treatment arm

## O=C1CCc2ccc(OCCCCN3CCN(c4cccc(Cl)c4Cl)CC3)cc2N1 [ARI, Aripiprazole]
[1]; [4]
  B, ARI concentrations in serum, CYP2D6 IM+PM: -2.48
[1]; [5]
  B, ARI concentrations in serum, CYP2D6 IM+PM: 1.54

## O=c1ccc2ccc(OCCCCN3CCN(c4cccc(Cl)c4Cl)CC3)cc2[nH]1 [DHA, dehydroaripiprazole]
[1]; Week 10, ESC + ARI
  lower DHA, CYP2D6 IM + PMs relative to NMs: 17.4%
[1]; [4]
  B, DHA concentrations in serum, CYP2D6 IM+PM: -0.99
[1]; [5]
  B, DHA concentrations in serum, CYP2D6 IM+PM: -0.47

## CN(C)CCC[C@@]1(c2ccc(F)cc2)OCc2cc(C#N)ccc21 [ESC, Escitalopram]
Patients with MDD [2]; Phase I (Weeks 0–8)
  Estimate for Week, percentage symptom improvement (MADRS), mixed effects model: 4.14
Patients with MDD [2]; Phase II (Weeks 8–16), by treatment arm
  Estimate for Week, percentage symptom improvement (MADRS), mixed effects model: 1.47
Patients with MDD [2]; Phase II
  share of the effect of CYP2C19 IM+PM phenotype on symptom improvement mediated by ESCadj serum concentrations: 45%
Patients with MDD [2]; Phase II, listed as ESC-Only
  share of the effect of CYP2C19 IM+PM phenotype on symptom improvement mediated by ESCadj serum concentrations: about 45%
Patients with MDD [2]
  cumulative difference in symptom improvement from baseline between CYP2C19 NMs and IMs: 11.5%
Patients with MDD [2]; listed as ESC-Only
  cumulative difference in symptom improvement from baseline between CYP2C19 NMs and IMs: 11.52%
Patients with MDD [2]; end of Phase I (Week 8), MADRS reduction ≥50% from baseline, 83/178
  overall response rate: 46.62%
Patients with MDD [2]; end of Phase II (Week 16), responders continued ESC, non-responders augmented with ARI, 122/178
  overall response rate: 68.54%
Patients with MDD [2]; vs NM, Phase I
  Estimate for CYP2C19 IM+PM*Week, percentage symptom improvement (MADRS), mixed effects model: -1.48
  Estimate for CYP2C19 IM+PM, percentage symptom improvement (MADRS), mixed effects model: 3.27
  Estimate for CYP2C19 RM+UM*Week, percentage symptom improvement (MADRS), mixed effects model: -0.73
  Estimate for CYP2C19 RM+UM, percentage symptom improvement (MADRS), mixed effects model: 3.74
  Estimate for CYP2D6 IM+PM*Week, percentage symptom improvement (MADRS), mixed effects model: 0.31
  Estimate for CYP2D6 IM+PM, percentage symptom improvement (MADRS), mixed effects model: 3.13
Patients with MDD [2]; [6]
  Estimate for CYP2C19 IM+PM, percentage symptom improvement (MADRS), mixed effects model: 26.15
  Estimate for CYP2C19 RM+UM*Week, percentage symptom improvement (MADRS), mixed effects model: -1.04
  Estimate for CYP2C19 RM+UM, percentage symptom improvement (MADRS), mixed effects model: 14.10
  Estimate for CYP2D6 IM+PM*Week, percentage symptom improvement (MADRS), mixed effects model: -0.41
  Estimate for CYP2D6 IM+PM, percentage symptom improvement (MADRS), mixed effects model: 1.19
Patients with MDD [2]; vs NM, Phase II, by treatment arm, listed as ESC-Only
  Estimate (B) for CYP2C19 IM+PM*Week, average percentage change in MADRS from baseline, mixed effects model: -2.34
Patients with MDD [2]; with every two-week assessment, Phase II, simple effects analysis
  average percentage change in MADRS from baseline lower in CYP2C19 IMs than in NMs: 2.54%
Patients with MDD [3]
  odds of reporting a CNS side effect, CYP2D6 NMs compared to IM + PMs (factor): 7.69
  odds of reporting decreased sleepiness, CYP2D6 NMs compared to IM + PMs: 25.53
Patients with MDD [3]; listed as ESC-Only
  odds of reporting sweating, CYP2D6 NMs compared to IM + PMs: 29.21
[1]; Week 2 (Phase I)
  higher mean ESCadj concentrations, CYP2C19 IM + PMs compared to NMs: 42.9%
  B, ESCadj concentrations in serum, CYP2C19 RM+UM: -0.05
  B, ESCadj concentrations in serum, CYP2D6 IM+PM: 0.31
[1]; Week 10, ESC + ARI
  difference in ESCadj concentrations between CYP2C19 NMs and IM + PMs: 39.6%
[1]; Week 10, ESC-Only
  higher levels of ESCadj in serum, CYP2D6 IM + PMs compared to NMs: 58.9%
[1]; Week 16, ESC + ARI
  difference in ESCadj concentrations between CYP2C19 NMs and IM + PMs: 58.2%
[1]; Week 16, ESC-Only
  higher levels of ESCadj in serum, CYP2D6 IM + PMs compared to NMs: 59.2%
[1]; Week 16, ARI coadministration
  ESC levels in CYP2D6 IM+PMs, ESC+ARI compared to ESC-Only: lower
[1]; Weeks 10 and 16, ARI coadministration
  ESCadj serum levels in CYP2D6 NMs, ESC + ARI compared to ESC-Only: significantly higher
[1]; Week 2 (Phase I), linear regression, dose-adjusted
  B, ESCadj concentrations in serum, CYP2C19 IM+PM: 0.59
[1]; Week 10, ESC+ARI arm
  B, ESCadj concentrations in serum, CYP2C19 IM+PM: 0.69
  B, ESCadj concentrations in serum, CYP2C19 RM+UM: 0.01
  B, ESCadj concentrations in serum, CYP2D6 IM+PM: -0.37
[1]; Week 10, ESC-Only arm
  B, ESCadj concentrations in serum, CYP2C19 IM+PM: 0.65
  B, ESCadj concentrations in serum, CYP2C19 RM+UM: 0.14
  B, ESCadj concentrations in serum, CYP2D6 IM+PM: 0.71 and 0.65
[1]; Week 16, ESC+ARI arm
  B, ESCadj concentrations in serum, CYP2C19 IM+PM: 0.77
  B, ESCadj concentrations in serum, CYP2C19 RM+UM: 0.17
  B, ESCadj concentrations in serum, CYP2D6 IM+PM: -0.32
[1]; Week 16, ESC-Only arm
  B, ESCadj concentrations in serum, CYP2C19 IM+PM: 0.66
  B, ESCadj concentrations in serum, CYP2C19 RM+UM: -0.10
CYP2D6
  inhibition of CYP2D6 in vitro: weak inhibitors

## CNCCC[C@@]1(c2ccc(F)cc2)OCc2cc(C#N)ccc21 [S-DCT, S-desmethylcitalopram]
[1]; Week 2 (Phase I)
  B, S-DCTadj concentrations in serum, CYP2C19 IM+PM: -0.04
  B, S-DCTadj concentrations in serum, CYP2C19 RM+UM: 0.04
  B, S-DCTadj concentrations in serum, CYP2D6 IM+PM: -0.08
[1]; Week 10, ESC+ARI arm
  B, S-DCTadj concentrations in serum, CYP2C19 IM+PM: -0.02
  B, S-DCTadj concentrations in serum, CYP2C19 RM+UM: 0.14
  B, S-DCTadj concentrations in serum, CYP2D6 IM+PM: -0.11
[1]; Week 10, ESC-Only arm
  B, S-DCTadj concentrations in serum, CYP2C19 IM+PM: -0.12
  B, S-DCTadj concentrations in serum, CYP2C19 RM+UM: 0.02
  B, S-DCTadj concentrations in serum, CYP2D6 IM+PM: -0.11
[1]; Week 16, ESC+ARI arm
  B, S-DCTadj concentrations in serum, CYP2C19 IM+PM: -0.12
  B, S-DCTadj concentrations in serum, CYP2C19 RM+UM: 0.08
  B, S-DCTadj concentrations in serum, CYP2D6 IM+PM: -0.12
[1]; Week 16, ESC-Only arm
  B, S-DCTadj concentrations in serum, CYP2C19 IM+PM: -0.09
  B, S-DCTadj concentrations in serum, CYP2C19 RM+UM: 0.07
  B, S-DCTadj concentrations in serum, CYP2D6 IM+PM: -0.12
CYP2D6
  inhibition of CYP2D6 in vitro: weak inhibitors
